Data reported in patent US20110112308A1 (NOVARTIS AG, priority 2006, published 2011).
Converted amounts (≈) assume the structure as drawn.

Key:
Format in all cases: physicochemical
[1] = Stability of mixtures with excipients; settings: for stability with all excipient mixtures tested, in words: after 2 weeks at 50° C./75% r.h.
Description: (§1) All samples were prepared/diluted to a concentration of 0.2 mg/mL in methanol prior to analysis by HPLC. A freshly prepared sample of each salt was used as the reference standard for external standard calibration analysis.

[2] = Solubility, 24-hour equilibration at room temperature; settings: for solubility at 24 h: organic solvent or mixture, thermodynamic from solid
Description: Aqueous Solubility: A carefully weighted amount (20-50 mg) of sample is dissolved in 1 ml of solvent with 24-hour equilibration at room temperature. The solubility was determined either gravimetrically or by UV-VIS spectrometry. The pH of the clear solution was also measured. However, the difficulty of determining salt solubilities in water should be stressed, since upon dissolution dissociation to the free form is possible, which affects both the solubility and the pH. It's not unlikely that attempts to make solutions of a salt at a concentration well below the reported solubility of the salt to be unsuccessful (for a full discussion see: M. Pudipeddi, A. T. M. Serajuddin, D. J. W. Grant, and P. H. Stahl in “Handbook of Pharmaceutical Salts Properties Selection and Use” page 27 and references therein).

[3] = pH of saturated solution or 1% suspension in water; settings: In pH = 6.8 buffer
Solid-state stability = settings: for Bulk stability (XRPD): 1 week
Description: as §1

[4] = pH of saturated solution or 1% suspension in water; settings: room temperature
Description: pH Value: The pH at room temperature of a saturated solution or 1% suspension of the drug substance in water was recorded.

[5] = Solution stability (HPLC); settings: for stability characteristics, in words: both in solution and in the solid state; for Unstressed (% Area): unstressed baseline of the stability study
Description: as §1

[6] = Intrinsic dissolution rate, rotation disk method; settings: for Intrinsic Dissolution Rate: 37° C., 200 r.p.m.
Description: Intrinsic Dissolution: […] […] Pellets of the other salts remained intact for at least several minutes enabling the determination of the intrinsic dissolution rate. Dissolution rate studies were performed using the rotation disk method ([…] Instrument). A single rotation speed of 200 r.p.m. was used to dissolve drug substance into a 500 mL vessel at 37° C. The solution was continuously pumped through a UV cell measurement and returned to the dissolution vessel.

[7] = Mixture 1: 50% PVP + 50% Crospovidone, 50° C./75% r.h., 2 weeks
[8] = Mixture 2: 50% Starch 1500 + 5% MCC 102, 50° C./75% r.h., 2 weeks
[9] = Mixture 3: 5% PVP + 5% Crospovidone + 10% Starch 1500 + 80% MCC 102, 50° C./75% r.h., 2 weeks
[10] = Mixture 4: 99% Lactose + 1% BHT/BHA, 50° C./75% r.h., 2 weeks
[11] = Mixture 5: 99% Mannitol + 1% BHT/BHA, 50° C./75% r.h., 2 weeks
[12] = Mixture 6: 50% Mannitol + 47% HPCLH21 + 1% BHT/BHA + 2% Magnesium Stearate, 50° C./75% r.h., 2 weeks
[13] = Mixture 7: 50% Cetyl Alcohol + 49% HPCLH21 + 1% Magnesium Stearate, 50° C./75% r.h., 2 weeks
[14] = Mixture 8: 100% PEG 3350, 50° C./75% r.h., 2 weeks
[15] = Bulk stability, 2 weeks, 50° C.
[16] = Bulk stability, 2 weeks, 50° C./20% water
[17] = Bulk stability, 2 weeks, 50° C./75% r.h.
[18] = Light study, 1200 kLux (300-800 nm)
[19] = 2 mg/mL in 100 mM lactate buffer, pH 3.5
[20] = 2 mg/mL in methanol, 1 week at 50° C.
[21] = 2 mg/mL in water, 1 week at 50° C.
[22] = 2 mg/mL, 100 mM lactate buffer pH 3.5, 1 week at 50° C.
[23] = 2 mg/mL, 100 mM lactate buffer pH 3.5, 1 week at 50° C., external standard
[24] = 2% in 0.5% HPMC 4000, 1 day at RT
[25] = 2% in 0.5% Klucel HF, 1 day at RT
[26] = 2% in 0.8% Tween 80, 1 day at RT
[27] = 5% solution, 1 day at RT (diluted 1:100 in pH 6.8 buffer)
[28] = Water, free base pellet disintegrated, not true intrinsic rate

SMILES: Cc1[nH]c2ccccc2c1CCNCc1ccc(/C=C/C(=O)NO)cc1.O=C(O)/C=C\C(=O)O [Maleate, 1:1 maleate salt of N-hydroxy-3-[4-[[[2-(2-methyl-1H-indol-3-yl)ethyl]amino]methyl]phenyl]-2E-2-propenamide]
- % DP (total degradation products) [1, 7]: 0.5 % area
- % DS (drug substance) [1, 7]: 99.5 % area
- % DP (total degradation products) [1, 8]: 0.3 % area
- % DS (drug substance) [1, 8]: 99.7 % area
- % DP (total degradation products) [1, 9]: 0.3 % area
- % DS (drug substance) [1, 9]: 99.7 % area
- % DP (total degradation products) [1, 10]: 0.3 % area
- % DS (drug substance) [1, 10]: 99.7 % area
- % DP (total degradation products) [1, 11]: 0.3 % area
- % DS (drug substance) [1, 11]: 99.7 % area
- % DP (total degradation products) [1, 12]: 0.3 % area
- % DS (drug substance) [1, 12]: 99.7 % area
- % DP (total degradation products) [1, 13]: 0.3 % area
- % DS (drug substance) [1, 13]: 99.7 % area
- % DP (total degradation products) [1, 14]: 0.4 % area
- % DS (drug substance) [1, 14]: 99.6 % area
- % DP (total degradation products) ([1]; Standard, freshly prepared): 0.2 % area
- % DS (drug substance) ([1]; Standard, freshly prepared): 99.8 % area
- stability with all excipient mixtures tested, in words [1]: very good stability
- aqueous solubility [2]: 2600 µg/mL
- solubility in methanol and ethanol, in words [2]: high
- solubility in other common / remaining organic solvents, in words [2]: considerable
- Solubility ([2]; 0.1N HCl, approx. at 25° C.): 700 µg/mL
- Solubility ([2]; 2-Propanol, approx. at 25° C.): 1600 µg/mL
- Solubility ([2]; Acetone, approx. at 25° C.): 3000 µg/mL
- Solubility ([2]; Ethanol, approx. at 25° C.): 7200 µg/mL
- Solubility ([2]; Ethyl acetate, approx. at 25° C.): 5600 µg/mL
- Solubility ([2]; Methanol, approx. at 25° C.): 57000 µg/mL
- Solubility ([2]; Propylene glycol, approx. at 25° C.): 32400 µg/mL
- Solubility ([2]; Water, approx. at 25° C.): 2600 µg/mL
- approximate solubility in water as % ([2]; estimated from mg/mL assuming solution density 1 g/mL): approximately 0.3%
- Solubility ([2]; pH = 6.8 buffer, approx. at 25° C.): 1500 µg/mL
- pH of saturated solution [3]: 5.70
- Bulk stability (XRPD) (Solid-state stability; 80° C.): no change
- Bulk stability (XRPD) (Solid-state stability; 80° C./75% r.h.): no change
- % DP (total degradation products) (Solid-state stability; [15]): 0.71 % area
- assay (Solid-state stability; [15]): [102.2]
- % DP (total degradation products) (Solid-state stability; [16]): 0.71 % area
- assay (Solid-state stability; [16]): [101.1]
- % DP (total degradation products) (Solid-state stability; [17]): 0.58 % area
- assay (Solid-state stability; [17]): [100.0]
- % DP (total degradation products) (Solid-state stability; [18]): 3.02 % area
- CL (appearance) (Solid-state stability; [18]): D (D = strong discoloration)
- assay (Solid-state stability; [18]): [96.72]
- pH of saturated solution [4]: 5.54
- pH of initial mixture [5, 19]: 3.51
- % DP (total degradation products) [5, 20]: 0.83 % area
- assay [5, 20]: [100.7]
- pH of initial mixture ([5]; 2 mg/mL in water): 5.40
- % DP (total degradation products) [5, 21]: 0.80 % area
- CL (appearance) [5, 21]: A↓
- assay [5, 21]: [97.26]
- % DP (total degradation products) [5, 22]: 1.59 % area
- CL (appearance) [5, 22]: A↓*
- assay [5, 23]: [97.48]
- % DP (total degradation products) ([5]; 2% in 0.5% CMC, 1 day at RT): 0.58 % area
- CL (appearance) ([5]; 2% in 0.5% CMC, 1 day at RT): A↓↓
- assay ([5]; 2% in 0.5% CMC, 1 day at RT): [77.42]
- % DP (total degradation products) [5, 24]: 0.60 % area
- assay [5, 24]: [94.63]
- % DP (total degradation products) [5, 25]: 0.55 % area
- assay [5, 25]: [96.78]
- % DP (total degradation products) [5, 26]: 0.66 % area
- assay [5, 26]: [96.83]
- % DP (total degradation products) [5, 27]: 0.67 % area
- CL (appearance) [5, 27]: A↓
- assay [5, 27]: [97.92]
- stability characteristics, in words [5]: very good stability
- Unstressed (% Area) [5]: 99.48% Area
- intrinsic dissolution (rate), in words [6]: good
- Intrinsic Dissolution Rate ([6]; HCl 0.1N): 1.00 mg min^−1 cm^−2
- Intrinsic Dissolution Rate [6, 28]: 0.32 mg min^−1 cm^−2

SMILES: Cc1[nH]c2ccccc2c1CCNCc1ccc(/C=C/C(=O)NO)cc1 [Free base, N-hydroxy-3-[4-[[[2-(2-methyl-1H-indol-3-yl)ethyl]amino]methyl]phenyl]-2E-2-propenamide]
- % DS (drug substance) [1, 7]: 98.8 % area
- % DS (drug substance) [1, 8]: 99.4 % area
- % DS (drug substance) [1, 9]: 99.3 % area
- % DS (drug substance) [1, 10]: 99.4 % area
- % DS (drug substance) [1, 11]: 99.2 % area
- % DS (drug substance) [1, 12]: 99.4 % area
- % DS (drug substance) [1, 13]: 99.5 % area
- % DS (drug substance) [1, 14]: 98.6 % area
- % DS (drug substance) ([1]; Standard, freshly prepared): 99.5 % area
- stability with all excipient mixtures tested, in words [1]: very good stability
- solubility at 24 h ([2]; ethyl acetate, 25 °C): 5600 µg/mL (≈ 16 mM)
- solubility at 24 h ([2]; Acetone, approx. at 25° C.): 6500 µg/mL (≈ 18.6 mM)
- solubility at 24 h ([2]; Ethanol, approx. at 25° C.): 1500 µg/mL (≈ 4.29 mM)
- solubility at 24 h ([2]; Methanol, approx. at 25° C.): 2300 µg/mL (≈ 6.58 mM)
- pH of saturated solution [3]: 6.91
- Bulk stability (XRPD) (Solid-state stability; 80° C.): Changed to mod. C
- Bulk stability (XRPD) (Solid-state stability; 80° C./75% r.h.): no change
- assay (Solid-state stability; [15]): [97.76]
- assay (Solid-state stability; [16]): [99.48]
- assay (Solid-state stability; [17]): [98.61]
- CL (appearance) (Solid-state stability; [18]): B (B = slight discoloration)
- assay (Solid-state stability; [18]): [99.39]
- pH of saturated solution [4]: 8.7
- pH of initial mixture [5, 19]: 3.60
- assay [5, 20]: [100.2]
- pH of initial mixture ([5]; 2 mg/mL in water): 9.59
- CL (appearance) [5, 21]: A↓
- assay [5, 21]: [98.73]
- assay [5, 23]: [97.21]
- assay ([5]; 2% in 0.5% CMC, 1 day at RT): [98.07]
- assay [5, 24]: [100.4]
- assay [5, 25]: [99.28]
- assay [5, 26]: [98.91]
- CL (appearance) [5, 27]: A↓
- assay [5, 27]: [100.4]
- stability characteristics, in words [5]: very good stability
- Unstressed (% Area) [5]: 99.41% Area
- Intrinsic Dissolution Rate [6, 28]: 0.15 mg min^−1 cm^−2
